Measurements as given in patent US20180099931A1 (AbbVie S.à.r.l., priority 2016, published 2018).
Read-outs that look alike come from different tables or passages of the source.

Target: T1, F508delCFTR (Homo sapiens, UniProt P13569, DEL508-508)
T1 construct: expressed in transfected cells; host or cells: CFBE41o- human lung-derived epithelial cells (CFBE4lo-F508delCFTR-HRP), doxycycline-inducible
Test: Cell Surface Expression-Horse Radish Peroxidase (CSE-HRP) Assay;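 on Maximum % activity (with co-corrector): co-corrector and positive control are both the same reference corrector at 2 µM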;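 on Maximum % activity (without co-corrector): percent of the 2 µM on-plate positive control corrector response above DMSO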
Assay type: cell-based
Conditions: for Maximum % activity (with co-corrector): with co-corrector (2 μM); for Maximum % activity (with co-corrector) / Emax: maximum at any tested concentration, normalized to on-plate positive control; for Emax: without co-corrector, read-out: Maximum % activity (without co-corrector)

[1] = test compound without co-corrector, read-out: EC50 (without co-corrector)
[2] = with co-corrector (2 μM of 3-[(2R,4R)-4-({[1-(2,2-difluoro-1,3-benzodioxol-5-yl)cyclopropyl]carbonyl}amino)-7-methoxy-3,4-dihydro-2H-chromen-2-yl]benzoic acid), read-out: EC50 (with co-corrector)

T1 sequence (P13569 with tags, fused parts or gaps DEL508-508): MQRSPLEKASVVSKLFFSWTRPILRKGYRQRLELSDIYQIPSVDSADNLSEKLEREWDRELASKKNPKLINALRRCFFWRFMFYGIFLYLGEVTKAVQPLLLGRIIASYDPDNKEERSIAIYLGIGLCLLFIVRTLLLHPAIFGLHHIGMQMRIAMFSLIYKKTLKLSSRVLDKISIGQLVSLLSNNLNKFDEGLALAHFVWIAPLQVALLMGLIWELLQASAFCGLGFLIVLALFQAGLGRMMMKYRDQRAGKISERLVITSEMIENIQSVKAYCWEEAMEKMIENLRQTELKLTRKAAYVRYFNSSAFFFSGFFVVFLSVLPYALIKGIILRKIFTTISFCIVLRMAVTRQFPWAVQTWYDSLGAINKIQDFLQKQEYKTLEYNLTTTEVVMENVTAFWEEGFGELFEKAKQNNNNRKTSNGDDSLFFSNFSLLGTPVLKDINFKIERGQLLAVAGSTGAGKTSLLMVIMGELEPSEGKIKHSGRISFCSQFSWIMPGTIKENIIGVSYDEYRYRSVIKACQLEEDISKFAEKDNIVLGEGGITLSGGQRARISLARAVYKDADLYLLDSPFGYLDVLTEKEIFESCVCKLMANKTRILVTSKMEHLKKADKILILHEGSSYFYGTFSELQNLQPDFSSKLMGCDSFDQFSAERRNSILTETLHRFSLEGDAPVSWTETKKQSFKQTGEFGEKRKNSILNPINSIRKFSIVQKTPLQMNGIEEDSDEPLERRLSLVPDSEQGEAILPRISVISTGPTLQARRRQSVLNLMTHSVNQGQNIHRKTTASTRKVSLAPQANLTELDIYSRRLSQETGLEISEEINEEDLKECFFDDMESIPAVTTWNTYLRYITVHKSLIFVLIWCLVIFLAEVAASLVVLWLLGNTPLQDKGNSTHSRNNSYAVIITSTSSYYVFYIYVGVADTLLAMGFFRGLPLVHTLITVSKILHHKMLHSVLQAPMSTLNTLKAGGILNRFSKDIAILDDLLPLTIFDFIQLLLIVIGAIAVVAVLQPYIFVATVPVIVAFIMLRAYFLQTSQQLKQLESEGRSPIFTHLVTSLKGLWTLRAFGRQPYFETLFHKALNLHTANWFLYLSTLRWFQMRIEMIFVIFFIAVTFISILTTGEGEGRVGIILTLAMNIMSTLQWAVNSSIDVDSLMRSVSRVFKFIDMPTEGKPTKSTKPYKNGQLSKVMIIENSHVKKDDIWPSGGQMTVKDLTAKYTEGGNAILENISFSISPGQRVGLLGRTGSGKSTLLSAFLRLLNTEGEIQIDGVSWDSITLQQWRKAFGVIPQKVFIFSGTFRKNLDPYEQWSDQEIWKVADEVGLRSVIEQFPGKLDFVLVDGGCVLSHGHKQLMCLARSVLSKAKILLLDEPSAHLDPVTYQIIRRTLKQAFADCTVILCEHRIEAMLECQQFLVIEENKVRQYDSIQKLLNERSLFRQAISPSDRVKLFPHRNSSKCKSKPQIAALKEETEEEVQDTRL

Row | Structure (SMILES) | EC50 [1] [nM] | EC50 [2] [nM] | Maximum % activity (with co-corrector) | Emax [%]
1 | COc1cc(C(F)(F)F)ccc1CN[C@H]1[C@H](C(C)(C)C)[C@@H](C(=O)O)N(C(=O)[C@@H]2CCCC(F)(F)C2)[C@H]1c1ccccc1 [Example 75, (2S,3S,4S,5S)-3-tert-butyl-1-[(1R)-3,3-difluorocyclohexane-1-carbonyl]-4-({[2-methoxy-4-(trifluoromethyl)phenyl]methyl}amino)-5-phenylpyrrolidine-2-carboxylic acid] | 1000 to 10000 | < 1000 | +++ (≥350) | > 200
2 | COc1ccc(C(C)(C)C)cc1CN[C@H]1[C@H](C23CC(C2)C3)[C@@H](C(=O)O)N(C(=O)OC(C)C)[C@H]1c1cccnc1OC [Example 76, (2S,3S,4S,5S)-3-(bicyclo[1.1.1]pentan-1-yl)-4-{[(5-tert-butyl-2-methoxyphenyl)methyl]amino}-5-(2-methoxypyridin-3-yl)-1-{[(propan-2-yl)oxy]carbonyl}pyrrolidine-2-carboxylic acid] | 1000 to 10000 | 1000 to 10000 | +++ (≥350) | 100 to 200
3 | COc1ncc(C(F)(F)F)cc1CN[C@H]1[C@H](C(C)(C)C)[C@@H](C(=O)O)N(C(=O)OC(C)C)[C@H]1c1ccccc1C(C)C [Example 77, (2S,3S,4S,5S)-3-tert-butyl-4-({[2-methoxy-5-(trifluoromethyl)pyridin-3-yl]methyl}amino)-1-{[(propan-2-yl)oxy]carbonyl}-5-[2-(propan-2-yl)phenyl]pyrrolidine-2-carboxylic acid] | 1000 to 10000 | 1000 to 10000 | +++ (≥350) | > 200
4 | COc1ccc(C(F)(F)F)cc1CN[C@H]1[C@H](C(C)(C)C)[C@@H](C(=O)O)N(C(=O)OC(C)C)[C@H]1c1cccnc1OC(C)C [Example 78, (2S,3S,4S,5S)-3-tert-butyl-4-({[2-methoxy-5-(trifluoromethyl)phenyl]methyl}amino)-1-{[(propan-2-yl)oxy]carbonyl}-5-{2-[(propan-2-yl)oxy]pyridin-3-yl}pyrrolidine-2-carboxylic acid] | 1000 to 10000 | 1000 to 10000 | +++ (≥350) | > 200
5 | COc1ncc(C(F)(F)F)cc1CN[C@H]1[C@H](C(C)(C)C)[C@@H](C(=O)O)N(C(=O)OC(C)C)[C@H]1c1cccnc1OC(C)C [Example 79, (2S,3S,4S,5S)-3-tert-butyl-4-({[2-methoxy-5-(trifluoromethyl)pyridin-3-yl]methyl}amino)-1-{[(propan-2-yl)oxy]carbonyl}-5-{2-[(propan-2-yl)oxy]pyridin-3-yl}pyrrolidine-2-carboxylic acid] | 1000 to 10000 | 1000 to 10000 | +++ (≥350) | > 200
6 | COc1ccc(C2(C)CCC2)cc1CN[C@H]1[C@H](C(C)(C)C)[C@@H](C(=O)O)N(C(=O)OC(C)C)[C@H]1c1cccnc1N(C)C [Example 80, (2S,3S,4S,5S)-3-tert-butyl-5-[2-(dimethylamino)pyridin-3-yl]-4-({[2-methoxy-5-(1-methylcyclobutyl)phenyl]methyl}amino)-1-{[(propan-2-yl)oxy]carbonyl}pyrrolidine-2-carboxylic acid] | 1000 to 10000 | 1000 to 10000 | +++ (≥350) | > 200
7 | COc1cc(C(F)(F)F)ccc1CN[C@H]1[C@H](C(C)(C)C)[C@@H](C(=O)O)N(C(=O)OC(C)C)[C@H]1c1cccnc1OC(C)C [Example 81, (2S,3S,4S,5S)-3-tert-butyl-4-({[2-methoxy-4-(trifluoromethyl)phenyl]methyl}amino)-1-{[(propan-2-yl)oxy]carbonyl}-5-{2-[(propan-2-yl)oxy]pyridin-3-yl}pyrrolidine-2-carboxylic acid] | 1000 to 10000 | 1000 to 10000 | +++ (≥350) | 100 to 200
8 | Cc1cc(C(F)(F)F)cc(N[C@H]2[C@H](C(C)(C)C)[C@@H](C(=O)O)N(C(=O)OC(C)C)[C@H]2c2ccccc2C(C)C)n1 [Example 82, (2S,3S,4S,5S)-3-tert-butyl-4-{[6-methyl-4-(trifluoromethyl)pyridin-2-yl]amino}-1-{[(propan-2-yl)oxy]carbonyl}-5-[2-(propan-2-yl)phenyl]pyrrolidine-2-carboxylic acid] | 1000 to 10000 | 1000 to 10000 | ++ (≥150 and <350) | < 100
9 | COc1ccc(C(F)(F)F)cc1CN[C@H]1[C@H](C(C)(C)C)[C@@H](C(=O)O)N(C(=O)OC(C)C)[C@H]1c1ccccc1C(C)C [Example 83, (2S,3S,4S,5S)-3-tert-butyl-4-({[2-methoxy-5-(trifluoromethyl)phenyl]methyl}amino)-1-{[(propan-2-yl)oxy]carbonyl}-5-[2-(propan-2-yl)phenyl]pyrrolidine-2-carboxylic acid] | 1000 to 10000 | < 1000 | +++ (≥350) | > 200
10 | COc1ncc(C(F)(F)F)cc1CN[C@H]1[C@H](C(C)(C)C)[C@@H](C(=O)O)N(C(=O)[C@@H]2CCCCO2)[C@H]1c1ccccc1C(C)C [Example 84, (2S,3S,4S,5S)-3-tert-butyl-4-({[2-methoxy-5-(trifluoromethyl)pyridin-3-yl]methyl}amino)-1-[(2S)-oxane-2-carbonyl]-5-[2-(propan-2-yl)phenyl]pyrrolidine-2-carboxylic acid] | < 1000 | < 1000 | +++ (≥350) | > 200
11 | COc1ncc(C(F)(F)F)cc1CN[C@H]1[C@H](C(C)(C)C)[C@@H](C(=O)O)N(C(=O)[C@H]2CCCCO2)[C@H]1c1ccccc1C(C)C [Example 85, (2S,3S,4S,5S)-3-tert-butyl-4-({[2-methoxy-5-(trifluoromethyl)pyridin-3-yl]methyl}amino)-1-[(2R)-oxane-2-carbonyl]-5-[2-(propan-2-yl)phenyl]pyrrolidine-2-carboxylic acid] | 1000 to 10000 | < 1000 | +++ (≥350) | > 200
12 | COc1ccc(C(C)(C)C)cc1CN[C@H]1[C@H](C(C)(C)C)[C@@H](C(=O)O)N(C(=O)OC(C)C)[C@H]1c1cccc(Cl)c1 [Example 86, (2S,3S,4S,5S)-3-tert-butyl-4-{[(5-tert-butyl-2-methoxyphenyl)methyl]amino}-5-(3-chlorophenyl)-1-{[(propan-2-yl)oxy]carbonyl}pyrrolidine-2-carboxylic acid] | 1000 to 10000 | < 1000 | +++ (≥350) | > 200
13 | COc1ncc(C2CCC2)cc1CN[C@H]1[C@H](C(C)(C)C)[C@@H](C(=O)O)N(C(=O)OC(C)C)[C@H]1c1cccnc1OC(C)C [Example 87, (2S,3S,4S,5S)-3-tert-butyl-4-{[(5-cyclobutyl-2-methoxypyridin-3-yl)methyl]amino}-1-{[(propan-2-yl)oxy]carbonyl}-5-{2-[(propan-2-yl)oxy]pyridin-3-yl}pyrrolidine-2-carboxylic acid] | 1000 to 10000 | 1000 to 10000 | +++ (≥350) | > 200
14 | COc1cc(C(F)(F)F)ccc1CN[C@H]1[C@H](C(C)(C)C)[C@@H](C(=O)O)N(C(=O)C2CCCCC2)[C@H]1c1ccccc1C [Example 88, (2S,3S,4S,5S)-3-tert-butyl-1-(cyclohexanecarbonyl)-4-({[2-methoxy-4-(trifluoromethyl)phenyl]methyl}amino)-5-(2-methylphenyl)pyrrolidine-2-carboxylic acid] | < 1000 | < 1000 | +++ (≥350) | > 200
15 | COc1ncc(C2CCC2)cc1CN[C@H]1[C@H](C(C)(C)C)[C@@H](C(=O)O)N(C(=O)[C@@H]2CCCO2)[C@H]1c1ccccc1C(C)C [Example 89, (2S,3S,4S,5S)-3-tert-butyl-4-{[(5-cyclobutyl-2-methoxypyridin-3-yl)methyl]amino}-1-[(2S)-oxolane-2-carbonyl]-5-[2-(propan-2-yl)phenyl]pyrrolidine-2-carboxylic acid] | 1000 to 10000 | < 1000 | +++ (≥350) | > 200
16 | COc1cc2c(cc1CN[C@H]1[C@H](C(C)(C)C)[C@@H](C(=O)O)N(C(=O)OC(C)C)[C@H]1c1ccccc1C)CCC2 [Example 90, (2S,3S,4S,5S)-3-tert-butyl-4-{[(6-methoxy-2,3-dihydro-1H-inden-5-yl)methyl]amino}-5-(2-methylphenyl)-1-{[(propan-2-yl)oxy]carbonyl}pyrrolidine-2-carboxylic acid] | 1000 to 10000 | 1000 to 10000 | +++ (≥350) | > 200
17 | COc1ncc(C(F)(F)F)cc1CN[C@H]1[C@H](C(C)(C)C)[C@@H](C(=O)O)N(C(=O)OC(C)C)[C@H]1c1ccccc1C1CC1 [Example 91, (2S,3S,4S,5S)-3-tert-butyl-5-(2-cyclopropylphenyl)-4-({[2-methoxy-5-(trifluoromethyl)pyridin-3-yl]methyl}amino)-1-{[(propan-2-yl)oxy]carbonyl}pyrrolidine-2-carboxylic acid] | < 1000 | < 1000 | +++ (≥350) | > 200
18 | COc1ncc(C2CCC2)cc1CN[C@H]1[C@H](C(C)(C)C)[C@@H](C(=O)O)N(C(=O)C2CCCCC2)[C@H]1c1ccccc1C [Example 92, (2S,3S,4S,5S)-3-tert-butyl-4-{[(5-cyclobutyl-2-methoxypyridin-3-yl)methyl]amino}-1-(cyclohexanecarbonyl)-5-(2-methylphenyl)pyrrolidine-2-carboxylic acid] | < 1000 | < 1000 | +++ (≥350) | > 200
